Publication PMC6509188, “Enterococcus faecalis Encodes an Atypical Auxiliary Acyl Carrier Protein Required for Efficient Regulation of Fatty Acid Synthesis by Exogenous Fatty Acids” (mBio, 2019)

Tests used:
Type in all cases: biochemical
[1] = molecular target: T1, PlsX (Enterococcus faecalis, UniProt Q82ZE8); test: acyl transfer to holo-ACP, urea-PAGE; conditions: acyl acceptor holo-AcpB of E. faecalis; 0.05 uM PlsX, 0.75 mM Mg2+, 0.5 mM DTT, 0.1 M HEPES pH 7.0, 37 C
T1 construct: N-terminal hexahistidine tag, expressed from pZL391 in E. coli, purified
T1 sequence (Q82ZE8 1-333): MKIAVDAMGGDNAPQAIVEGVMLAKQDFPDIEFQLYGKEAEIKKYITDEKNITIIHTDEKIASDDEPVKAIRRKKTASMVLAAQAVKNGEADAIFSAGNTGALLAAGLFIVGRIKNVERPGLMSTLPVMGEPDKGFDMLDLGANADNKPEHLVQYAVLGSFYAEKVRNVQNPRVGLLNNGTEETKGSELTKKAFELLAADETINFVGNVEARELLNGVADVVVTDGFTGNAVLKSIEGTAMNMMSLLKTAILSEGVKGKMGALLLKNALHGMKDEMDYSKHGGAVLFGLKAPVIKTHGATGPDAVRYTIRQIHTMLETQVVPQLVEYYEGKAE

[2] = molecular target: T2, AcpS (Enterococcus faecalis, UniProt Q820V0); test: conversion of apo-ACP to holo-ACP, PAGE; conditions: acceptor apo-AcpA or apo-AcpB of E. faecalis; Mg2+, Tris-HCl pH 8.0, 37 C
T2 construct: N-terminal hexahistidine tag, expressed from pZL311, nickel-chelate purified
T2 sequence (Q820V0 1-117): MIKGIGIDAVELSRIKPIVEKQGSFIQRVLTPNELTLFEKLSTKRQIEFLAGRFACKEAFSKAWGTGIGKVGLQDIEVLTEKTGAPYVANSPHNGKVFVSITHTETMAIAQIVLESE

[3] = molecular target: T3, AasS (Vibrio harveyi, UniProt Q00IB3); test: acyl-ACP synthesis, urea-PAGE; conditions: acceptor holo-AcpA or holo-AcpB of E. faecalis; 2 mM ATP, 200 uM acid, 37 C
T3 construct: N-terminal hexahistidine tag, expressed from pYFJ84, nickel-chelate purified; used to prepare acyl-ACPs
T3 sequence (Q00IB3 entry or part of it): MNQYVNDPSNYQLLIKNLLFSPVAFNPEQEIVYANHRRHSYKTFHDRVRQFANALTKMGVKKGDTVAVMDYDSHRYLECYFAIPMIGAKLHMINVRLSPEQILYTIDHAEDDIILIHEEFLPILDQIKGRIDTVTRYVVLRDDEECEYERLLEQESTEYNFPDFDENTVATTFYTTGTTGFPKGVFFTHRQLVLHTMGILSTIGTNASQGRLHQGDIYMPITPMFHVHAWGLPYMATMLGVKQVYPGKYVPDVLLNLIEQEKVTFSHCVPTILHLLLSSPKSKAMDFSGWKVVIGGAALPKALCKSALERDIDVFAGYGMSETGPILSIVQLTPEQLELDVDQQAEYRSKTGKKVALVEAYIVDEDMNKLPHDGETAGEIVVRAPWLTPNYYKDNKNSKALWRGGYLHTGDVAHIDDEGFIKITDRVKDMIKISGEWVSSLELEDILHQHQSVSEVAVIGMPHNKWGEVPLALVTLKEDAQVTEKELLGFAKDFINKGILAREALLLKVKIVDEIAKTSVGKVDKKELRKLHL

CCCCCCCCCCCCCCCCCC(=O)OP(=O)(O)O [stearoyl-phosphate]
acyl transfer to holo-ACP, urea-PAGE [1]: AcpB was fully converted into acyl-AcpB when stearoyl-phosphate (C18:0-PO4) or oleyl-phosphate (C18:1-PO4)

CC(C)(COP(=O)(O)OP(=O)(O)OC[C@H]1O[C@@H](n2cnc3c(N)ncnc32)[C@H](O)[C@@H]1OP(=O)(O)O)[C@@H](O)C(=O)NCCC(=O)NCCS [CoA]
conversion of apo-ACP to holo-ACP, PAGE [2]: treated with E. faecalis AcpS and coenzyme A (CoA)

CCCCCCC/C=C/C(=O)O [trans-2-decenoic acid]
acyl-ACP synthesis, urea-PAGE [3]: Incubation of the holo proteins with AasS, ATP, and trans-2-decenoic acid resulted in trans-2-decenoyl-AcpA
